Measurements published in article PMC11395447, “Development and Optimization of a Bromothymol Blue-Based PLA2 Assay Involving POPC-Based Self-Assemblies” (International Journal of Molecular Sciences, 2024).

Target: T1, PLA2-IB (Phospholipase A2 IB) (Sus scrofa, UniProt P00592)
T1 construct: gene PLA2G1B
Assay: bromothymol blue absorbance assay, Michaelis-Menten kinetics on POPC liposomes (Km)
Format: biochemical

T1 sequence (P00592 23-146): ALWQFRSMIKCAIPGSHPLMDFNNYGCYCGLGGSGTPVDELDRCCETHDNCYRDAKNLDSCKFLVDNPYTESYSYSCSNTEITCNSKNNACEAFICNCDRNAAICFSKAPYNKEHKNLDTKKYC

In the case of POPC, the Km is reported as 12.9 µM.
